Assay results as given in patent US20230201144A1, “BIARYLSULFONAMIDES AND PHARMACEUTICAL COMPOSITIONS THEREOF, AND THEIR USE FOR TREATING FIBROTIC LUNG DISEASE” (NovoMedix, LLC, priority 2020, published 2023).
Values joined by “and” are separate entries in the source; they are usually repeats but may differ in a detail not shown here. Identical values can stand only once.

Tested on: Alpha smooth muscle actin (α-SMA) levels
Assay: α-SMA levels by Western blot in TGF-β-treated normal human lung fibroblasts (headed Cell Proliferation Assay)
Type: cell-based
Conditions: 10 ng/mL TGF-β, 24 h; for Relative α-SMA 5 μM / Relative α-SMA 20 μM: Table 4; for Relative α-SMA 5 μM: compound 5 μM; for Relative α-SMA 20 μM: compound 20 μM
Protocol: Normal human lung fibroblasts were plated in a 6-well plate at 100,000 cells per well in 1 mL of DMEM supplemented with 10% FBS. The cells were incubated overnight at 37° C. under 5% CO2. The next day, the cells were serum starved (medium was removed and 1 mL of fresh DMEM without serum was added). The cells were incubated overnight.
The cells were treated with a test compound in DMEM, 5% FBS in the presence of 10 ng/mL TGF-β and incubated for 24 h. The cells were lysed with an M-PER buffer. Alpha smooth muscle actin (α-SMA) levels were determined by Western blot and normalized to 0-tubulin levels using cell signaling antibodies. Blots were probed with secondary antibodies from LI-COR® Biosciences and read using a scanner from LI-COR® Biosciences. Quantification was also done using a software from LI-COR® Biosciences. The results are shown in Tables 1 to 4 below, where the control (Ctrl) is the fibroblasts in the absence of TGF-β and a test compound.

[1] = single agent 5 μM, TGF-β alone = 1 (Tables 1-3)
[2] = single agent 10 μM, TGF-β alone = 1
[3] = single agent 20 μM, TGF-β alone = 1 (Tables 1-3)

## Cc1cc(NS(=O)(=O)c2c(C(C)C)cc(C(C)C)cc2C(C)C)cc(C(F)(F)F)c1 [A1, 2,4,6-Triisopropyl-N-(3-methyl-5-(trifluoromethyl)phenyl)benzenesulfonamide]
  Relative α-SMA 5 μM: 0.98
  Relative α-SMA 20 μM: 0.37

## COC(=O)c1cc(NS(=O)(=O)c2c(C(C)C)cc(C(C)C)cc2C(C)C)cc(C(F)(F)F)c1 [A2, Methyl 3-(trifluoromethyl)-5-((2,4,6-triisopropylphenyl)sulfonamido)benzoate]
  Relative α-SMA 5 μM: 1.05
  Relative α-SMA 20 μM: 0.23

## CC(C)c1cc(C(C)C)c(S(=O)(=O)Nc2cc(C(=O)O)cc(C(F)(F)F)c2)c(C(C)C)c1 [A3, 3-(Trifluoromethyl)-5-((2,4,6-triisopropylphenyl)sulfonamido)benzoic acid]
  Relative α-SMA 5 μM: 0.79
  Relative α-SMA 20 μM: 0.73

## CCCCNC(=O)c1cc(NS(=O)(=O)c2c(C(C)C)cc(C(C)C)cc2C(C)C)cc(C(F)(F)F)c1 [A4, N-Butyl-3-(trifluoromethyl)-5-((2,4,6-triisopropylphenyl)sulfonamido)benzamide]
  Relative α-SMA 5 μM: 1.30
  Relative α-SMA 20 μM: 0.46

## CC(C)c1cc(C(C)C)c(S(=O)(=O)Nc2cc(NC(=O)OC(C)(C)C)cc(C(F)(F)F)c2)c(C(C)C)c1 [A5, Tert-butyl (3-(trifluoromethyl)-5-((2,4,6-triisopropylphenyl)sulfonamido)-phenyl)carbamate]
  Relative α-SMA 5 μM: 0.95
  Relative α-SMA 20 μM: 0.21

## CC(C)c1cc(C(C)C)c(S(=O)(=O)Nc2cc(N)cc(C(F)(F)F)c2)c(C(C)C)c1 [A6, N-(3-Amino-5-(trifluoromethyl)phenyl)-2,4,6-triisopropylbenzenesulfonamide]
  Relative α-SMA 5 μM: 1.08
  Relative α-SMA 20 μM: 0.05

## CC(=O)Nc1cc(NS(=O)(=O)c2c(C(C)C)cc(C(C)C)cc2C(C)C)cc(C(F)(F)F)c1 [A7, N-(3-(Trifluoromethyl)-5-((2,4,6-triisopropylphenyl)sulfonamido)phenyl)-acetamide]
  Relative α-SMA 5 μM: 1.60
  Relative α-SMA 20 μM: 0.33

## CCN(CC)c1cc(NS(=O)(=O)c2c(C(C)C)cc(C(C)C)cc2C(C)C)cc(C(F)(F)F)c1 [A8, N-(3-(Diethylamino)-5-(trifluoromethyl)phenyl)-2,4,6-triisopropylbenzenesulfonamide]
  Relative α-SMA 5 μM: 0.88
  Relative α-SMA 20 μM: 0.33

## Cc1cc(C(C)(C)C)cc(C)c1S(=O)(=O)Nc1cc(OCCCC#N)cc(C(F)(F)F)c1 [A9, 4-(Tert-butyl)-N-(3-(3-cyanopropoxy)-5-(trifluoromethyl)phenyl)-2,6-dimethylbenzenesulfonamide]
  Relative α-SMA 5 μM: 1.05
  Relative α-SMA 20 μM: 0.78

## Cc1cc(C(C)(C)C)cc(C)c1S(=O)(=O)Nc1cc(OCCCCN)cc(C(F)(F)F)c1 [A10, N-(3-(4-Aminobutoxy)-5-(trifluoromethyl)phenyl)-4-(tert-butyl)-2,6-dimethylbenzenesulfonamide]
  Relative α-SMA 5 μM: 0.69

## CC(C)c1cc(C(C)C)c(S(=O)(=O)Nc2cc(OCCCCN)cc(C(F)(F)F)c2)c(C(C)C)c1 [A11, N-(3-(4-Aminobutoxy)-5-(trifluoromethyl)phenyl)-2,4,6-triisopropylbenzenesulfonamide]
  Relative α-SMA 5 μM: 0.85

## Cc1cc(C(C)(C)C)cc(C)c1S(=O)(=O)Nc1cc(OCCN(C)C)cc(C(F)(F)F)c1 [A12, 4-(Tert-butyl)-N-(3-(2-(dimethylamino)ethoxy)-5-(trifluoromethyl)phenyl)-2,6-dimethylbenzenesulfonamide]
  Relative α-SMA 5 μM: 0.37

## Cc1cc(C(C)(C)C)cc(C)c1S(=O)(=O)Nc1cc(CCCN(C)C)cc(C(F)(F)F)c1 [A13, 4-(Tert-butyl)-N-(3-(3-(dimethylamino)propyl)-5-(trifluoromethyl)phenyl)-2,6-dimethylbenzenesulfonamide]
  Relative α-SMA 5 μM: 0.29

## Cc1cc(C(C)(C)C)cc(C)c1S(=O)(=O)Nc1cc(CCCN2CCOCC2)cc(C(F)(F)F)c1 [A14, 4-(Tert-butyl)-2,6-dimethyl-N-(3-(3-morpholinopropyl)-5-(trifluoromethyl)-phenyl)benzenesulfonamide]
  Relative α-SMA 5 μM: 0.53

## Cc1cc(C(C)(C)C)cc(C)c1S(=O)(=O)Nc1cc(C2CCN(C)CC2)cc(C(F)(F)F)c1 [A15, 4-(Tert-butyl)-2,6-dimethyl-N-(3-(1-methylpiperidin-4-yl)-5-(trifluoromethyl)-phenyl)benzenesulfonamide]
  Relative α-SMA 5 μM: 0.31

## Cc1cc(C(C)(C)C)cc(C)c1S(=O)(=O)Nc1cc(Br)cc(C(F)(F)F)c1 [A16, N-(3-Bromo-5-(trifluoromethyl)phenyl)-4-(tert-butyl)-2,6-dimethylbenzenesulfonamide]
  Relative α-SMA 5 μM: 0.35

## COc1cc(NS(=O)(=O)c2c(C)cc(C(C)(C)C)cc2C)cc(C(F)(F)F)c1 [A17, 4-(Tert-butyl)-N-(3-methoxy-5-(trifluoromethyl)phenyl)-2,6-dimethylbenzenesulfonamide]
  Relative α-SMA 5 μM: 0.46

## Cc1cc(C(C)(C)C)cc(C)c1S(=O)(=O)Nc1cc(O)cc(C(F)(F)F)c1 [A18, 4-(Tert-butyl)-N-(3-hydroxy-5-(trifluoromethyl)phenyl)-2,6-dimethylbenzenesulfonamide]
  Relative α-SMA 5 μM: 0.57
  Relative α-SMA 20 μM: 0.28
[1]
  Relative α-SMA: 1.26
[2]
  Relative α-SMA: 0.86
[3]
  Relative α-SMA: 0.06

## COc1cc(NS(=O)(=O)c2c(C(C)C)cc(C(C)C)cc2C(C)C)c(C)c(C(F)(F)F)c1 [A19, 2,4,6-Triisopropyl-N-(5-methoxy-2-methyl-3-(trifluoromethyl)phenyl)-benzenesulfonamide]
  Relative α-SMA 5 μM: 0.56

## Cc1c(NS(=O)(=O)c2c(C(C)C)cc(C(C)C)cc2C(C)C)cc(O)cc1C(F)(F)F [A20, N-(5-Hydroxy-2-methyl-3-(trifluoromethyl)phenyl)-2,4,6-triisopropylbenzenesulfonamide]
  Relative α-SMA 5 μM: 0.27

## Cc1c(Br)cc(C(F)(F)F)cc1NS(=O)(=O)c1c(C(C)C)cc(C(C)C)cc1C(C)C [A21, N-(3-Bromo-2-methyl-5-(trifluoromethyl)phenyl)-2,4,6-triisopropylbenzenesulfonamide]
  Relative α-SMA 5 μM: 0.45

## Cc1cc(C(C)(C)C)cc(C)c1S(=O)(=O)Nc1cc(C2CCNCC2)cc(C(F)(F)F)c1 [A22, 4-(Tert-butyl)-2,6-dimethyl-N-(3-(piperidin-4-yl)-5-(trifluoromethyl)phenyl)-benzenesulfonamide]
  Relative α-SMA 5 μM: 0.21
  Relative α-SMA 20 μM: 0.12

## Cc1c(NS(=O)(=O)c2c(C(C)C)cc(C(C)C)cc2C(C)C)cc(C(F)(F)F)cc1C(F)(F)F [B4, N-(2-methyl-3,5-bis(trifluoromethyl)phenyl)-2,4,6-triisopropyl-benzene-sulfonamide]
Single agent 2 μM, normalized to tubulin, TGF-β alone = 1
  Relative α-SMA: 0.95
[1]
  Relative α-SMA: 0.69
[2]
  Relative α-SMA: 0.15

## Cc1cc(C(C)(C)C)cc(C)c1S(=O)(=O)Nc1cc(C(F)(F)F)cc(C(F)(F)F)c1 [B5, N-(3,5-bis(trifluoromethyl)phenyl)-4-(tert-butyl)-2,6-dimethylbenzene-sulfonamide]
[1]
  Relative α-SMA: 0.91
[2]
  Relative α-SMA: 0.75
[3]
  Relative α-SMA: 0.24

## COC(=O)c1ccc2c(c1)NC(=O)/C2=C(\Nc1ccc(N(C)C(=O)CN2CCN(C)CC2)cc1)c1ccccc1 [N, nintedanib, reference compound]
[1]
  Relative α-SMA: 0.82 and 0.92 and 0.97

## Cc1ccc(=O)n(-c2ccccc2)c1 [P, pirfenidone, reference compound]
Single agent 200 μM, TGF-β alone = 1
  Relative α-SMA: 1.29 and 1.02
